{
  "source": "patent US11613538B2",
  "about": "“Method of inhibiting or reducing a viral infection” (PTC Therapeutics, Inc., priority 2009, dated 2023)",
  "key": {"[1]": {"system": "hypoxia-induced VEGF production in HeLa cells", "test": "cells", "format": "cell-based, human", "settings": "Homo sapiens, HeLa"}, "HT1080 xenografts": {"system": "HT1080 xenografts", "test": "HT1080 xenograft tumor growth in male athymic nude mice", "format": "in vivo", "settings": "study #24a; 10 mg/kg QD; in words", "description": "Experimental Design. HT1080 cells (5×10^6 cells/mouse) were implanted subcutaneously in male athymic nude mice. […] For comparison, Compound #10 was included in this study."}, "[2]": {"system": "VEGF production in tumor cells", "test": "VEGF production in tumor cells (data not shown)", "format": "cell-based", "settings": "in words", "description": "In addition to its effects on pathological VEGF production, a Compound provided herein provokes a late GI/early S-Phase cell cycle delay, i.e., between the late resting or pre-DNA synthesis phase, and the early DNA synthesis phase in those tumor cell lines in which VEGF generation is decreased by the Compound. See Section 8.3. […] The cell cycle delay and inhibition of pathological VEGF protein production occur in concert, linking these phenotypes in inflammation, pathological angiogenesis and tumor growth. […] Thus, these experiments indicate that the effects of the Compound on the tumor cell cycle occur in parallel with its actions on pathological VEGF production in tumors."}, "786-O cells": {"system": "786-O cells", "test": "786-O renal cell carcinoma xenograft (VHL-negative), tumor volume", "format": "in vivo, mice", "settings": "for Median time for tumors to reach 1000 mm^3: Compound #10 10 mg/kg QD PO, time on study used if not reached; for Median time for tumors to reach 1000 mm^3 / Tumors smaller than those in vehicle-treated mice: sunitinib 75 mg/kg QD PO, rapamycin 15 mg/kg PO; for Tumors smaller than those in vehicle-treated mice: Day 57, Compound #10 10 mg/kg QD PO", "protocol": "Both sunitinib and rapamycin are used clinically for treatment of renal cancer.\n(§1) A total of 100 mice were injected, of which 60 were used in the study.\nGroups were taken off study when the mean tumor volume in a group was 1300 mm^3 or more. Vehicle-treatment started on Day 0 and continued through Day 57. Compound #10-treatment started on Day 0 and continued through Day 88.\n(§2) Tumors were measured twice per week using digital calipers.\nThe time to progression to reach a tumor volume 1000 mm^3 was calculated for each mouse. The median values were reported."}, "Caki-1 cells": {"system": "Caki-1 cells", "test": "Caki-1 renal cell carcinoma xenograft (VHL-positive), tumor volume", "format": "in vivo, mice", "settings": "for Median time for tumors to reach 1000 mm^3: Compound #10 10 mg/kg QD PO; for Median time for tumors to reach 1000 mm^3 / Tumors smaller than those in vehicle-treated mice: sunitinib 75 mg/kg QD PO, rapamycin 15 mg/kg PO; for Tumors smaller than those in vehicle-treated mice: Day 35, Compound #10 10 mg/kg QD PO", "protocol": "The Caki-1 cell line expresses the von Hippel-Lindau (VHL) protein which acts as a tumor suppressor by promoting the rapid degradation of HIF-1α (hypoxia-inducible factor 1α) under normoxia. Under hypoxic conditions, HIF-1α is stabilized and activated by the inability of VHL to act resulting in increased transcription of VEGF that is responsible for the high vascularization of RCC (see Turcotte et al, 2003, Zimmer et al, 2004).\nas §1\nGroups were taken off study when the mean tumor volume in a group was 1300 mm^3 or more. Vehicle-treatment started on Day 0 and continued through Day 35. Compound #10-treatment started on Day 0 and continued through Day 52.\nas §2\n[…] The median values were reported."}, "[3]": {"test": "Caki-1 xenograft study: body weight and clinical observations", "format": "in vivo, mice", "settings": "Caki-1 study", "description": "Body Weight: The mice were weighed once per week."}, "[4]": {"settings": "mouse, in vivo"}, "[5]": {"test": "786-O xenograft study: body weight and clinical observations", "settings": "786-O study"}},
  "note": "Entries after “also recorded” stand apart in the source; their conditions may differ.",
  "data": [
    {"smiles": "O=C(Oc1ccc(Cl)cc1)N1CCc2c([nH]c3ccc(Cl)cc23)[C@H]1c1ccc(OCC[C@H](O)CO)cc1", "note": "[Compound 1330]", "values": [
      {"measurement": "EC50", "setting": "[1]", "value": "> 1000", "unit": "nM"},
      {"measurement": "Growth of HT1080 tumors in vivo (FIG. 4)", "setting": "HT1080 xenografts", "value": "overlapped with the growth of tumors in mice treated with 0.5% HPMC vehicle"}
    ]},
    {"smiles": "COc1ccc(C2c3[nH]c4ccc(Cl)cc4c3CCN2C(=O)C(=O)Nc2ccc(C#N)cc2)cc1", "note": "(centres unmarked) [Compound 1716]", "values": [
      {"measurement": "EC50", "setting": "[1]", "value": "200 to 1000", "unit": "nM"}
    ]},
    {"smiles": "COc1ccc(C2c3[nH]c4ccc(Cl)cc4c3CCN2C(=O)C(=O)OCC2CC2)cc1", "note": "(centres unmarked) [Compound 1717]", "values": [
      {"measurement": "EC50", "setting": "[1]", "value": "8 to 40", "unit": "nM"}
    ]},
    {"smiles": "COc1ccc(C2c3[nH]c4ccc(Cl)cc4c3CCN2C(=O)C(=O)OCC2CCC2)cc1", "note": "(centres unmarked) [Compound 1718]", "values": [
      {"measurement": "EC50", "setting": "[1]", "value": "8 to 40", "unit": "nM"}
    ]},
    {"smiles": "COc1ccc(C2c3[nH]c4ccc(Cl)cc4c3CCN2C(=O)C(=O)OC2CCCC2)cc1", "note": "(centres unmarked) [Compound 1719]", "values": [
      {"measurement": "EC50", "setting": "[1]", "value": "> 1000", "unit": "nM"}
    ]},
    {"smiles": "COc1ccc(C2c3[nH]c4ccc(Cl)cc4c3CCN2C(=O)C(=O)Oc2ccc(Cl)cc2)cc1", "note": "(centres unmarked) [Compound 1720]", "values": [
      {"measurement": "EC50", "setting": "[1]", "value": "> 1000", "unit": "nM"}
    ]},
    {"smiles": "COc1ccc(C2c3[nH]c4ccc(Cl)cc4c3CCN2C(=O)C(=O)Oc2ccc(C)cc2)cc1", "note": "(centres unmarked) [Compound 1721]", "values": [
      {"measurement": "EC50", "setting": "[1]", "value": "> 1000", "unit": "nM"}
    ]},
    {"smiles": "COc1ccc(C2c3[nH]c4ccc(Cl)cc4c3CCN2C(=O)C(=O)Oc2ccc(F)cc2)cc1", "note": "(centres unmarked) [Compound 1722]", "values": [
      {"measurement": "EC50", "setting": "[1]", "value": "> 1000", "unit": "nM"}
    ]},
    {"smiles": "COc1ccc(OC(=O)C(=O)N2CCc3c([nH]c4ccc(Cl)cc34)C2c2ccc(OC)cc2)cc1", "note": "(centres unmarked) [Compound 1723]", "values": [
      {"measurement": "EC50", "setting": "[1]", "value": "> 1000", "unit": "nM"}
    ]},
    {"smiles": "COc1ccc(C2c3[nH]c4ccc(Cl)cc4c3CCN2C(=O)C(=O)Oc2ccccc2)cc1", "note": "(centres unmarked) [Compound 1724]", "values": [
      {"measurement": "EC50", "setting": "[1]", "value": "> 1000", "unit": "nM"}
    ]},
    {"smiles": "NC(Cn1ccc(=O)c(O)c1)C(=O)O", "note": "(centres unmarked) [mimosine]", "values": [
      {"measurement": "Effect on VEGF production", "setting": "[2]", "value": "does not reduce VEGF production"}
    ]},
    {"smiles": "CO[C@H]1C[C@@H]2CC[C@@H](C)[C@@](O)(O2)C(=O)C(=O)N2CCCC[C@H]2C(=O)O[C@H]([C@H](C)C[C@@H]2CC[C@@H](O)[C@H](OC)C2)CC(=O)[C@H](C)/C=C(\\C)[C@@H](O)[C@@H](OC)C(=O)[C@H](C)C[C@H](C)/C=C/C=C/C=C/1C", "note": "[rapamycin]", "values": [
      {"measurement": "Median time for tumors to reach 1000 mm^3", "setting": "786-O cells", "value": 87, "unit": "days"},
      {"measurement": "Tumors smaller than those in vehicle-treated mice", "setting": "786-O cells", "value": 49, "unit": "%"},
      {"measurement": "Tumor size (mean±SD)", "setting": "786-O cells; Day 93, 15 mg/kg PO", "value": "1715±393", "unit": "mm^3"},
      {"measurement": "Median time for tumors to reach 1000 mm^3", "setting": "Caki-1 cells", "value": 43, "unit": "days"},
      {"measurement": "Tumors smaller than those in vehicle-treated mice", "setting": "Caki-1 cells", "value": 60, "unit": "%"},
      {"measurement": "Tumor size (mean±SD)", "setting": "Caki-1 cells; Day 63, 15 mg/kg PO", "value": "1689±1081", "unit": "mm^3"},
      {"measurement": "Body weight loss", "setting": "[3]; Day 8", "value": 4.3, "unit": "%"},
      {"measurement": "Body weight loss", "setting": "[3]; Day 14", "value": 5.8, "unit": "%"},
      {"measurement": "Mice of the treatment group that had died", "setting": "[3]; by Day 65", "value": "6 of the 10 mice"},
      {"measurement": "Body weight change from initial body weight", "setting": "[3]; in words", "value": "transiently lost weight"},
      {"measurement": "Individual mice found dead or sacrificed", "setting": "[3]; in words", "value": "found dead on Day 14; also recorded: found dead on Day 62; also recorded: found dead on Day 63"},
      {"measurement": "Mice of the treatment group that had died or were sacrificed due to sickness", "setting": "[4]", "value": "1 of the 10 mice"},
      {"measurement": "Body weight loss", "setting": "[5]; Day 7", "value": 2.4, "unit": "%"},
      {"measurement": "Body weight loss", "setting": "[5]; Day 14", "value": 2.8, "unit": "%"},
      {"measurement": "Survival of treated mice", "setting": "[5]; all mice, in words", "value": "survived until sacrificed"},
      {"measurement": "Body weight change from initial body weight", "setting": "[5]; in words", "value": "transiently lost weight"}
    ]},
    {"smiles": "CCN(CC)CCNC(=O)c1c(C)[nH]c(/C=C2\\C(=O)Nc3ccc(F)cc32)c1C", "note": "[sunitinib]", "values": [
      {"measurement": "Median time for tumors to reach 1000 mm^3", "setting": "786-O cells", "value": 119, "unit": "days"},
      {"measurement": "Tumors smaller than those in vehicle-treated mice", "setting": "786-O cells", "value": 83, "unit": "%"},
      {"measurement": "Tumor size (mean±SD)", "setting": "786-O cells; Day 119, 75 mg/kg QD, PO", "value": 709938, "unit": "mm^3"},
      {"measurement": "Median time for tumors to reach 1000 mm^3", "setting": "Caki-1 cells", "value": 66, "unit": "days"},
      {"measurement": "Tumors smaller than those in vehicle-treated mice", "setting": "Caki-1 cells", "value": 66, "unit": "%"},
      {"measurement": "Tumor size (mean±SD)", "setting": "Caki-1 cells; Day 98, 75 mg/kg QD, PO", "value": "1494±1150", "unit": "mm^3"},
      {"measurement": "Clinical observation: skin", "setting": "[3]; from Day 8 onward, all mice, in words", "value": "yellow-tinged skin"},
      {"measurement": "Body weight change from initial body weight", "setting": "[3]; in words", "value": "transiently lost weight"},
      {"measurement": "Individual mice found dead or sacrificed", "setting": "[3]; in words", "value": "sacrificed on Day 4; also recorded: found dead on Day 17; also recorded: found dead on Day 95"},
      {"measurement": "Mice of the treatment group that had died or were sacrificed due to sickness", "setting": "[4]", "value": "1 of the 10 mice"},
      {"measurement": "Survival of treated mice", "setting": "[5]; all mice, in words", "value": "survived until sacrificed"},
      {"measurement": "Clinical observation: skin", "setting": "[5]; from Day 7 onward, all mice, in words", "value": "yellow-tinged skin"},
      {"measurement": "Body weight change from initial body weight", "setting": "[5]; in words", "value": "transiently lost weight"}
    ]}
  ]
}
